In US20220175761A1, “BI-LIGAND DRUG CONJUGATE AND USE THEREOF” (COHERENT BIOPHARMA (SUZHOU), LIMITED, priority 2019, published 2022):
Numbered stars: 1 amine (or outer) side, 2 acyl side, 3 side chain; on linkers, the order of the positions; unused ones are H or OH. Square brackets hold non-standard residues; d marks the D form. Peptide text beside a SMILES is read from it. * marks the point of attachment. ξ: configuration not given here. X5 = CCc1c2c(nc3ccc(O)cc13)-c1cc3c(c(=O)n1C2)COC(=O)[C@@]3(CC)OC(=O)OCc1ccc(NC(=O)COCC(=O)*)cc1; X4 = O=C([C@H](Cc1cnnn1CCOCCOCCOCCOCCOCCN[*:3])N[*:1])[*:2]; Pteroyl = Nc1nc2ncc(CNc3ccc(C(=O)*)cc3)nc2c(=O)[nH]1; γGlu = O=C(O)[C@H](CCC(=O)[*:2])N[*:1]; ξV = CC(C)C(N)C(=O)O

Test system: KB, LNCaP, T-47D, RT4 and NCI-H460 tumor cell lines
Experiment: Inhibition of tumor cell expansion, CCK8 (CB-50S)
Format: cell-based, human
Method: Cell lines: KB human oral epidermoid carcinoma cells, NCI-H460 human lung cancer cells, RT4 human bladder cancer cells, T-47D human breast cancer cells and LNCaP human prostate cancer cells
The cells were prepared in advance, digested with trypsin, collected and counted; with a complete cell culture medium, KB cells were diluted to 3.5×10^4 cells/ml, LNCaP cells were diluted to 8.0×10^4 cells/ml, T-47D cells were diluted to 1.2×10^4 cells/ml, NCI-H460 cells were diluted to 2.5×10^4 cells/ml, and RT4 cells were diluted to 1.2×10^5 cells/ml; to each well of 96-well plates, 100 μl of the diluted cell solution was added; and negative control and blank control wells were set on each plate. The 96-well plates added with the cells were placed in an incubator at 37° C., 5% CO2 for culturing overnight.
The samples were diluted with a culture medium to desired concentrations (see Table 16). […]
To each well, 15 μl (10% of the liquid volume in a well) of a color developing solution from CCK-8 was added; the plates were incubated at 37° C. for an appropriate time (try to keep the OD value in the range of 1.0-2.0); the covers of the 96-well plates were removed, and the plates were read at 450 nm on a microplate reader (Molecular Devices Spectra MAX Plus). […]

## CCc1c2c(nc3ccc(O)cc13)-c1cc3c(c(=O)n1C2)COC(=O)[C@@]3(CC)OC(=O)OCc1ccc(NC(=O)COCC(=O)NCCOCCOCCOCCOCCOCCn2nncc2C[C@H](NC(=O)CC[C@H](NC(=O)c2ccc(NCc3cnc4[nH]c(N)nc(=O)c4n3)cc2)C(=O)O)C(=O)N[C@@H](CCCCN)C(=O)N[C@@H](CCC(=O)O)C(=O)N[C@@H](Cc2ccccc2)C(=O)N[C@@H](CC(C)C)C(=O)N[C@@H](Cc2cnc[nH]2)C(=O)N2CCC[C@H]2C(=O)N[C@@H](CO)C(=O)N[C@@H](CCCCN)C(=O)NC(C(=O)N[C@@H](CC(=O)O)C(=O)N[C@@H](CC(C)C)C(=O)N2CCC[C@H]2C(=O)N[C@@H](CCCNC(=N)N)C(=O)O)C(C)C)cc1 (some centres unmarked) [CB-50S] ({Pteroyl-γGlu}-[X4](X5)KEFLHPSK[ξV]DLPR-OH)
72 hours, CCK-8
  inhibitory effect on growth and expansion of tumor cell lines: has an inhibitory effect
KB, LNcap, T-47D and RT4 versus NCI-H460
  IC50 compared between cell lines: significantly lower
